{
  "source": "patent US11786507B2",
  "about": "“Methods of treating HIV-associated neurological disorders (HAND)” (priority 2020, dated 2023)",
  "test_system": "iTat mice",
  "assay": "Western blotting of SYP, PSD-95, GFAP, Iba-1 in cortex and hippocampus",
  "assay_type": "in vivo, mouse",
  "from_the_text": "Doxycycline (Dox)-inducible and astrocyte-specific HIV-1 Tat-transgenic mice (iTat) were generated as previously described.^38 Wild-type (Wt, C57BL/6) and α7 nAChR knockout mice (α7^−/−, B6.129S7-Chrna^7tm1Ba/J) were purchased from the Jackson Laboratory (Bar Harbor, ME). All the animal procedures were approved by the Institutional Animal Care and Use Committee. Mice were housed with a 12-hour light and 12-hour dark photoperiod and provided water and food ad libitum. α7^−/− iTat mice were generated by cross breeding iTat mice with α7^−/− mice. α7^−/− genotyping was slightly modified with the JumpStart™ Taq DNA Polymerase-based PCR (JumpStart™ Taq DNA Polymerase, Sigma, catalog #D9307). […] Mice of 10-14 weeks old with body weights of 20-35 grams were fed with Dox-containing diet (0.625 g/kg, Envigo, catalog #TD.01306) as stated.\nA RIPA buffer (50 mM Tris.HCl, pH 8.0, 280 mM NaCl, 0.5% NP-40, 1% C24H39NaO4, 0.2 mM EDTA, 2 mM EGTA and 10% glycerol) supplemented with protease inhibitors (Millipore-Sigma, catalog #S8830) and phosphatase inhibitors (Millipore-Sigma, catalog #4906845001) was used to lyse the brain tissues and cultured cells with brief sonication on ice. Protein concentrations of the lysates were determined using a Bio-Rad DC protein assay kit (Bio-Rad, catalog #5000111). Lysates were denatured in the SDS-PAGE loading buffer at 100° C. for 10 min, then electrophoretically separated by 8-15% SDS-PAGE, blotted onto 0.45 μm polyvinylidene fluoride membrane (GE Healthcare Life Sciences, catalog #10600023), and probed using appropriate antibodies against PSD-95 (Abcam, catalog #ab18258, and 1:2000 dilution), SYP (Abcam, catalog #ab8049, and 1:1000 dilution), Iba-1 (Wako, catalog #016-20001, and 1:500 dilution) and GFAP (DAKO, catalog #z330s, and 1:2000 dilution), p-p38 (Santa Cruz, catalog #sc-166182, and 1:1000 dilution), p38 (Santa cruz, catalog #sc-535, and 1:1000 dilution), p-JNK (Santa cruz, catalog #sc-6254, and 1:1000 dilution), JNK (Santa cruz, catalog #sc-571, and 1:1000 dilution), p-ERK (Santa cruz, catalog #sc-7383, and 1:1000 dilution), and ERK (Santa cruz, catalog #sc-514302, and 1:1000 dilution), α7 nAChR (Alomone, catalog #ANC-007, and 1:1000 dilution) and β-actin (Sigma-Aldrich, catalog #A1978, and 1:2000 dilution). A Bio-Rad ChemicDoc imaging system (Bio-Rad) and Image J were used for image capturing and analysis, respectively. […]",
  "key": {"[1]": {"conditions": "CORT, PAM 15 mg/kg/day s.c. vs DMSO"}},
  "note": "Entries after “also recorded” stand apart in the source; their conditions may differ.",
  "data": [
    {"smiles": "COc1cc(OC)c(NC(=O)Nc2cc(C)on2)cc1Cl", "note": "[PAM, 1-(5-chloro-2,4-dimethoxy-phenyl)-3-(5-methyl-isoxazol-3-yl)-urea]", "values": [
      {"measurement": "GFAP expression", "setting": "[1]", "result": "completely reversed the increases; also recorded: decreased GFAP in iTat mice"},
      {"measurement": "Iba-1 expression", "setting": "[1]", "result": "decreased Iba-1 in both Wt and iTat mice"},
      {"measurement": "PSD-95 expression", "setting": "[1]", "result": "significant increases of PSD-95 in Wt mice and even more in iTat mice"},
      {"measurement": "SYP expression", "setting": "[1]", "result": "no changes"},
      {"measurement": "SYP and GFAP expression", "setting": "HIP, DMSO- vs PAM-treated mice", "result": "no differences of SYP and GFAP"},
      {"measurement": "PSD-95 expression", "setting": "HIP, PAM 15 mg/kg/day s.c. vs DMSO", "result": "increased PSD-95 in both Wt and iTat mice"}
    ]}
  ]
}
